Source: paper PMC4669722, “Antitumour potential of BPT: a dual inhibitor of cdk4 and tubulin polymerization” (Cell Death & Disease, 2015)
“Also recorded” adds a separate entry of the source.

Tests used:
tubulin = assay: Cell-free tubulin polymerization assay in vitro; type: biochemical; settings: for Vmax of tubulin polymerization: control 19 mOD/min
Protocol: The purified tubulin was obtained commercially (Cytoskeleton Inc., Denver, CO, USA) and the polymerization assays were carried out according to the method described previously.[36] […] The resulting polymerization curves are representative of the three phases of microtubule polymerization, namely nucleation, growth and steady-state equilibrium. Paclitaxel and nocodazole were used in the assay as a known enhancer and inhibitor of tubulin polymerization, respectively. The ability of BPT to inhibit tubulin polymerization in vitro was determined according to the manufacturer's instructions. Briefly, tubulin protein (3 mg/ml) was polymerized in GTP buffer (80 mM PIPES, pH 6.9, 2 mM MgCl2, 0.5 mM EGTA, 10.2% glycerol and 1 mM GTP) in the presence of a range of BPT concentrations at 37 °C in a temperature-regulated Biotech spectrophotometer (Potton, Bedfordshire, UK). The absorbance (at 340 nm) kinetics of 61 cycles for each sample was studied and the readings were recorded at an interval of 1 min.

A549 and Calu-1 cells = assay: Colony formation (clonogenic) assay, A549 and Calu-1; type: cell-based, human; settings: p53+ A549 and p53-null Calu-1, 12-day experiment
Protocol: A549 and Calu-1 cells were plated at a concentration of 500 cells per well in 35 mm/6-well plates in 2 ml complete medium. The plates were incubated for 24 h stabilization and further incubated with a range of concentrations of fascaplysin and BPT for 24 h. Plates were then gently washed with PBS, replaced with fresh medium and incubated at 37 °C. After 10–12 days, cells were fixed in methanol:acetic acid (2 : 1) fixative for 10 min, washed, air dried and stained with 1% crystal violet. The colonies were evaluated by visual counts. The number of colonies in treated cultures was expressed as a percentage of the control cultures. All results represent means and standard deviations from at least three independent experiments.

A549 (NSCLC; p53+, pRb+) = assay: Cell proliferation (MTT) assay, A549; type: cell-based; settings: Homo sapiens, 48 h, read-out: IC50 cell growth inhibition, A549
Protocol: (§1) All 10 human cancer cell lines were maintained at 37 °C in 5% CO2 in RPMI-1640 medium, supplemented with 10% foetal calf serum and 100 μg/ml normocin. The 10 cancer cell lines used for screening were all obtained from ATCC (Manassas, VA, USA); they were the NSCLC (a form of cancer that is resistant to chemotherapy) lines: NCI-H460 (pRb^+, p53^+), A549 (pRb^+, p53^+), Calu-1 (pRb^+, p53-null), NCI-H1299 (pRb^+, p53-null), NCI-H358 (pRb-null, p53-null); the colon cancer line LS174T (pRb^+, p53^+); the prostate cancer line PC-3 (pRb^+, p53-null); the pancreatic cancer line MiaPaca (pRb^+, p53-mutant). The genotypes within brackets indicate the status of the tumour suppressor proteins pRb and p53. The mouse embryonic normal hepatic cell line (BNL CL2) and its SV40 large T-antigen-transformed counterpart cell line (BNL SV A.8) were also purchased from ATCC. The large T-antigen inactivates the tumour suppressor proteins p53 and pRb. The detailed procedure of cell proliferation (MTT) assay and IC50 determination was described previously.[32]

[1] = test system: BNL CL2 (mouse embryonic normal hepatic cells); assay: Flow cytometric cell cycle analysis, BNL CL2; type: cell-based; settings: BNL CL2, 48 h, IC50 and IC70 concentrations
Protocol: The untreated (control) and treated (with test compounds) cells were harvested by trypsinization, washed once with PBS and then fixed in 70% chilled (−20 °C) ethanol for minimum 1 h. After the fixation step, cells were centrifuged for 5 min at 3000 × g at room temperature, and the pellet was suspended in PBS containing 50 μg/ml propidium iodide (Sigma-Aldrich, Dorset, UK; cat. no. P-4170) and 0.5 mg/ml DNase-free ribonuclease (Sigma-Aldrich; cat. no. R-5503). The cells were stained for 1 h in the dark at 4 °C. Cell cycle analysis was performed on the Beckman Coulter (Epics Altra) fluorescence-activated cell sorter (Beckman Coulter UK Ltd, Buckinghamshire, UK). To gate all the events that represent single cells, and not cell doublets or cell clumps, the following analyses were performed on the samples. Cytograms of propidium iodide fluorescence peak signal versus integrated fluorescence or the linear signal were plotted. All data points on the straight line were isolated in a single gate and the gated data was further used for plotting a histogram that represents a complete cell cycle. The total number of events was not allowed to exceed 200 events per s. Data acquisition was stopped after a minimum of 10 000 events had been collected.

PKA = PKA (Homo sapiens, UniProt P17612); assay: Kinase profiling (Millipore), PKA; type: biochemical
Protocol: The in vitro kinase assays for testing against Cdk4-cyclin D1, Cdk2-cyclin A, Cdk1-cyclin B1 and Cdk9-cyclin T1 were performed in-house. The methodology and results have been reported previously.[20], [30], [31], [32], [45] The kinase profiling for 58 representative kinases was carrried out commercially at Millipore Bioscience Division, Livingston, UK.

pBluescript plasmid DNA = assay: Topoisomerase I catalysed DNA relaxation or unwinding assay; type: biochemical
Protocol: For assay, 5 nM supercoiled pBluescript d-s plasmid DNA and 10 U of topoisomerase-I active enzyme were used in each reaction well. To ensure that the assay determines the DNA-intercalating property of compounds and not topoisomerase I inhibition, in a parallel experiment relaxed plasmid DNA was first prepared by treating with topo I enzyme for 30 min and then used as an initial substrate for the assay. DNA relaxation assays were performed in the presence or absence of compounds in 40 μl of DNA unwinding assay buffer. After 30 min incubation at 37 °C, reaction mixtures were treated with 3 μl of 250 mM EDTA and extracted with phenol/chloroform. The DNA was dissolved in tris-EDTA buffer, pH 8.0. The samples (20 μl) were treated with 2 μl of 2.5% SDS, mixed with 2.5 μl agarose gel loading buffer (10x) and subjected to electrophoresis on a 0.8% agarose gel without EtBr (separating the DNA in the presence of EtBr would convert the relaxed DNA into the supercoiled form). After the electrophoretic separation, DNA bands were stained with 1 μg/ml EtBr and visualized using a UV illuminator. The compounds were compared with fascaplysin, which is a known DNA-intercalating molecule. Camptothecin, which is a known topoisomerase- I inhibitor, was used to test the activity and inhibition of enzyme.

[2] = test system: NCI-H1299 (NSCLC; p53 null, pRb+); assay: Cell proliferation (MTT) assay, NCI-H1299; type: cell-based; settings: Homo sapiens, 48 h, read-out: IC50 cell growth inhibition, NCI-H1299
Protocol: as §1

[3] = test system: several human cancer cells; assay: Growth inhibition of several human cancer cells; type: cell-based
Protocol: as §1

## O=C(c1ccccc1-c1ccccc1)N1CCc2c([nH]c3ccccc23)C1 [BPT, 2-(biphenyl-2-carbonyl)-2,3,4,9-tetrahydro-1H-pyrido[3,4-b]indole]
tubulin; 0.5 μM
  Vmax of tubulin polymerization: 12.5 mOD/min
tubulin; 1 μM
  Vmax of tubulin polymerization: 9.2 mOD/min
tubulin; 2.5 μM
  Vmax of tubulin polymerization: 3 mOD/min
tubulin; 5 μM
  Vmax of tubulin polymerization: 0.5 mOD/min
tubulin; 0.5-5 μM
  reduction in final polymer mass: up to 80%
A549 and Calu-1 cells
  colony formation efficiency: significant reduction
A549 (NSCLC; p53+, pRb+)
  IC50: 0.92 µM
[1]
  cells detected in the sub-G1 phase: < 10%
  normal cells in the G2/M phase: More than 50%
PKA
  IC50: > 10 µM
pBluescript plasmid DNA; relaxed pBluescript DNA as substrate, BPT up to 100 μM, fascaplysin 1 μM
  state of relaxed (negatively supercoiled) plasmid DNA after treatment: remained relaxed
pBluescript plasmid DNA; supercoiled pBluescript DNA, fascaplysin 10 and 1 µM, BPT 10 and 100 µM
  hindrance of topoisomerase-I catalysed DNA relaxation: does not hinder DNA relaxation process; also recorded: does not intercalate
[2]
  IC50: 0.9 µM
[3]
  IC50: < 1 µM
